The source of these data is ChEMBL document CHEMBL5030545, “Discovery of clinical candidate Sivopixant (S-600918): Lead optimization of dioxotriazine derivatives as selective P2X3 receptor antagonists” (Bioorg Med Chem Lett, 2021).

Data set [1] can be described thus: Oral bioavailability in rat at 1 mg/kg administered as cassette dose. Particulars: in vivo. It is filed as ADME, organism-based.
Data set [2] can be described thus: Ratio of plasma concentration in rat measured after 3 hrs to IC50 of P2X3 (unknown origin). It counts as ADME. To be noted: in vivo.
Data set [3] can be described thus: Free plasma concentration in rat plasma at 1 mg/kg administered as cassette dose. It counts as ADME, organism-based. To be noted: in vivo.
Data set [4] can be described thus: Ratio of free plasma concentration in rat measured after 3 hrs to IC50 of P2X3 (unknown origin). It counts as ADME.
Data set [5] concerns Rattus norvegicus. Kind of data set: Analgesic activity in rat model of partial sciatic nerve ligation-induced neuropathic pain assessed as reversal of allodynia at 3 mg/kg, po measured after 3 hrs relative to control. It is filed as functional.
Data set [6] can be described thus: Protein binding in rat plasma assessed as unbound fraction at 1 mg/kg administered as cassette dose. It counts as ADME, organism-based.
Data set [7] has as its target T1, P2X purinoceptor 3 (Homo sapiens, UniProt P56373).
T1 sequence (P56373 whole entry): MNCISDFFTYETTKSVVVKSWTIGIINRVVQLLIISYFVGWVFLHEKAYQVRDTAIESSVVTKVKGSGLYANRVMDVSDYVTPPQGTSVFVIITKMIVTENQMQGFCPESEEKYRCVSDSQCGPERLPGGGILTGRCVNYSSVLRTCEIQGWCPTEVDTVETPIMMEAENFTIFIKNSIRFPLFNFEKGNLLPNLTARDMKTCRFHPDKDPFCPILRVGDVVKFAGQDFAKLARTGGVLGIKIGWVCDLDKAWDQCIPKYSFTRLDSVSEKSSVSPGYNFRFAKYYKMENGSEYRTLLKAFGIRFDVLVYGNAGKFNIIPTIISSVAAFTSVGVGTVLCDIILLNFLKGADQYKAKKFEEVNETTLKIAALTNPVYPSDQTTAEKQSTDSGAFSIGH
Put plainly: Antagonist activity at P2X3 receptor (unknown origin).

As a reminder, the fraction unbound is free concentration divided by total concentration. On to `CC(C)Oc1ccc(/N=c2\[nH]c(=O)n(C[C@H](C)C(=O)O)c(=O)n2Cc2ccc(Cl)cc2)cc1`, for which the bioavailability in data set [1] came to 88.8%. Besides, the Ratio in data set [2] stood at 42.8; in data set [4], 2.91. Moreover, the “Cp(f)” value in data set [3] is recorded as 827 nM. Further, in data set [5], the Activity is 2%. Also, in data set [6], the fraction unbound was determined as 0.068.

As for `Cc1cc(/N=c2\[nH]c(=O)n(C[C@H](C)C(=O)O)c(=O)n2Cc2ccc(Cl)cc2)ccc1OC(C)C`, the bioavailability in data set [1] is 102%. Besides, the Ratio was determined as 57.8 in data set [2] and 1.16 in data set [4]. Also, the “Cp(f)” value in data set [3] is reported as 924 nM. In data set [5], the Activity came to 13%. In data set [6], the fraction unbound came out at 0.02.

In the case of `CC(C)Oc1ccc(/N=c2\[nH]c(=O)n(C[C@H](C)C(=O)O)c(=O)n2Cc2ccc(Cl)cc2)cc1Cl`, the bioavailability in data set [1] is 82.4%. Moreover, the values for the Ratio in data set [2] and in data set [4] were 171.8 and 0.52, respectively. Besides, the “Cp(f)” value in data set [3] was found to be 1537 nM. The Activity in data set [5] is 26%. In data set [6], the fraction unbound was 0.003.

On to `CC(C)Oc1ccc(Nc2nc(=O)n(CCO)c(=O)n2Cc2ccc(Cl)cc2)cc1Cl`, for which the bioavailability in data set [1] is 48.1%. Moreover, the Ratio is on record as 204.9 in data set [2] and 0.2 in data set [4]. The “Cp(f)” value in data set [3] turned out to be 3095 nM. Further, in data set [6], the fraction unbound was found to be 0.001.

By IC50 is commonly meant the point on the concentration scale where inhibition reaches its midpoint. Read a low IC50 as higher potency. `CC(C)Oc1ccc(/N=c2\[nH]c(=O)n(C[C@H](C)C(=O)O)c(=O)n2Cc2ccc(Cl)cc2)cc1F`: the bioavailability in data set [1] worked out at 96%. In addition, the Ratio in data set [2] is recorded as 145.2; in data set [4] it was 1.31. In addition, the “Cp(f)” value in data set [3] was 1126 nM. Moreover, the IC50 in data set [7] came to 7.8 nM. Moreover, the Activity in data set [5] was found to be 23%. For the same compound, the fraction unbound in data set [6] was 0.009.

As for `CC(C)Oc1ccc(Nc2nc(=O)n(CC(CO)CO)c(=O)n2Cc2ccc(Cl)cc2)cc1Cl`, the bioavailability in data set [1] came out at 54.8%. For the same compound, the Ratio in data set [2] is reported as 89.2; in data set [4], 0.27. Besides, the “Cp(f)” value in data set [3] worked out at 597 nM. The compound further showed an IC50 in data set [7] of 6.7 nM. Also, in data set [6], the fraction unbound was found to be 0.003.

On to `Cc1ccc(Cn2c(=O)n(C[C@H](C)C(=O)O)c(=O)[nH]/c2=N\c2ccc(OC(C)C)c(Cl)c2)cc1`, for which the bioavailability in data set [1] is 73.1%. Further, the Ratio was found to be 98.9 in data set [2] and 1.38 in data set [4]. For the same compound, the “Cp(f)” value in data set [3] is 692 nM. In data set [5], the Activity came to 3%. Besides, the fraction unbound in data set [6] was 0.014.

With `CC(C)Oc1ccc(/N=c2\[nH]c(=O)n(CCCC(=O)O)c(=O)n2Cc2ccc(Cl)cc2)cc1Cl`, the bioavailability in data set [1] came out at 43.2%. In addition, the Ratio was found to be 119.4 in data set [2] and 0.24 in data set [4]. Also, the “Cp(f)” value in data set [3] turned out to be 1600 nM. Moreover, the fraction unbound in data set [6] came out at 0.002.

For the compound `CC(C)Oc1ccc(Nc2nc(=O)n(CCCO)c(=O)n2Cc2ccc(Cl)cc2)cc1Cl`, in data set [1], the bioavailability came out at 36.2%. Further, the Ratio came out at 103.5 in data set [2] and 0.31 in data set [4]. Besides, the “Cp(f)” value in data set [3] was 711 nM. For the same compound, the midpoint of inhibition in data set [7], the IC50, lay at 6.9 nM. Further, the fraction unbound in data set [6] was found to be 0.003.

For the compound `CC(C)Oc1ccc(/N=c2\[nH]c(=O)n(CC(C)(C)C(=O)O)c(=O)n2Cc2ccc(Cl)cc2)cc1Cl`, in data set [1], the bioavailability came to 85.3%. Moreover, the Ratio in data set [2] stood at 72.4; in data set [4] it was 0.22. In data set [3], the “Cp(f)” value is 485 nM. In data set [7], this compound yielded an IC50 of 6.7 nM. In data set [6], the fraction unbound was determined as 0.003.

As for `Cc1ccc(Cn2c(=O)n(CC(C)(C)C(=O)O)c(=O)[nH]/c2=N\c2ccc(OC(C)C)c(Cl)c2)cc1`, in data set [1], the bioavailability came to 30.7%. Also, the results for the Ratio in data set [2] and in data set [4] were 14.2 and 0.14, respectively. Moreover, in data set [3], the “Cp(f)” value amounted to 139 nM. This compound also registered an IC50 in data set [7] of 9.8 nM. Also, the fraction unbound in data set [6] came out at 0.01.

`CC(C)Oc1ccc(Nc2nc(=O)n(CCC(=O)O)c(=O)n2Cc2ccc(Cl)cc2)cc1Cl`: in data set [1], the bioavailability is 71.2%. In addition, in data set [3], the “Cp(f)” value came out at 1267 nM. Also, the Activity in data set [5] was found to be 6%. Besides, the fraction unbound in data set [6] was 0.003.

`Cc1ccc(Cn2c(=O)n(CCCC(=O)O)c(=O)[nH]/c2=N\c2ccc(OC(C)C)c(Cl)c2)cc1`: in data set [1], the bioavailability was 108%. Also, the values for the Ratio in data set [2] and in data set [4] were 294.8 and 0.59, respectively. The “Cp(f)” value in data set [3] amounted to 3655 nM. For the same compound, the Activity in data set [5] came to 20%. In addition, the fraction unbound in data set [6] is 0.002.

For `CC(C)Oc1ccc(/N=c2\[nH]c(=O)n(C[C@@H](C)C(=O)O)c(=O)n2Cc2ccc(Cl)cc2)cc1Cl`, the bioavailability in data set [1] was found to be 108%. The figures for the Ratio in data set [2] and in data set [4] were 62.2 and 0.12, respectively. In data set [3], the “Cp(f)” value worked out at 1001 nM. Moreover, the fraction unbound in data set [6] was determined as 0.002.

With `C[C@@H](Cn1c(=O)[nH]/c(=N\c2ccc(Oc3cnccn3)cc2)n(Cc2ccc(Cl)cc2)c1=O)C(=O)O`, the bioavailability in data set [1] stood at 56.5%. The Ratio in data set [2] is on record as 56.2; in data set [4], 1.02. The “Cp(f)” value in data set [3] was determined as 330 nM. Moreover, the IC50 in data set [7] was 5.8 nM. The fraction unbound in data set [6] was 0.018.

For the compound `C[C@@H](Cn1c(=O)[nH]/c(=N\c2ccc(OC3CCC3)cc2)n(Cc2ccc(Cl)cc2)c1=O)C(=O)O`, the bioavailability in data set [1] is 54.3%. Moreover, the Ratio in data set [2] is 30.4; in data set [4], 0.46. Also, the “Cp(f)” value in data set [3] was found to be 462 nM. In data set [6], the fraction unbound amounted to 0.015.

Take `C[C@@H](Cn1c(=O)[nH]/c(=N\c2ccc(OCC3CC3)cc2)n(Cc2ccc(Cl)cc2)c1=O)C(=O)O`: the bioavailability in data set [1] came out at 45.6%. Moreover, the Ratio in data set [2] stood at 37.6; in data set [4], 0.79. Also, the “Cp(f)” value in data set [3] was 643 nM. The fraction unbound in data set [6] stood at 0.021.

Take `C[C@@H](Cn1c(=O)[nH]/c(=N\c2ccc(Oc3cccnc3)cc2)n(Cc2ccc(Cl)cc2)c1=O)C(=O)O`: the IC50 in data set [7] is 8.6 nM.

As for `C[C@@H](Cn1c(=O)[nH]/c(=N\c2ccc(Oc3ccc(F)cn3)cc2)n(Cc2ccc(Cl)cc2)c1=O)C(=O)O`, in data set [1], the bioavailability worked out at 82.4%. In addition, the “Cp(f)” value in data set [3] is on record as 473 nM. Also, the fraction unbound in data set [6] is 0.011.

Turning to `CC(C)COc1ccc(/N=c2\[nH]c(=O)n(C[C@H](C)C(=O)O)c(=O)n2Cc2ccc(Cl)cc2)cc1`, the bioavailability in data set [1] is 48.7%. Moreover, the Ratio in data set [2] amounted to 11.5; in data set [4] it was 0.29. In addition, in data set [3], the “Cp(f)” value is on record as 253 nM. Further, the fraction unbound in data set [6] stood at 0.025.

With `C[C@@H](Cn1c(=O)[nH]/c(=N\c2ccc(Oc3cccc(F)n3)cc2)n(Cc2ccc(Cl)cc2)c1=O)C(=O)O`, the bioavailability in data set [1] is 60%. Moreover, the “Cp(f)” value in data set [3] was 456 nM. Besides, the unbound share (fraction unbound) in data set [6] stood at 0.007.

For `CC(C)Oc1ccc(/N=c2\[nH]c(=O)n(C[C@@H](O)CO)c(=O)n2Cc2ccc(Cl)cc2)cc1Cl`, the bioavailability in data set [1] turned out to be 63%. The results for the Ratio in data set [2] and in data set [4] were 284.5 and 0.28, respectively. For the same compound, the “Cp(f)” value in data set [3] is 1627 nM. For the same compound, inhibition in data set [7] was half-maximal at 5.7 nM (IC50). In addition, the fraction unbound in data set [6] came out at 0.001.

In the case of `C[C@@H](Cn1c(=O)[nH]/c(=N\c2ccc(Oc3ccncc3)cc2)n(Cc2ccc(Cl)cc2)c1=O)C(=O)O`, the midpoint of inhibition in data set [7], the IC50, lay at 5.2 nM.

Consider `CC.C[C@@H](Cn1c(=O)[nH]/c(=N\c2ccc(Oc3cc(F)ccn3)cc2)n(Cc2ccc(Cl)cc2)c1=O)C(=O)O`, for which the bioavailability in data set [1] came out at 40.2%. Also, the Ratio is reported as 48.9 in data set [2] and 0.2 in data set [4]. Also, in data set [3], the “Cp(f)” value is listed as 240 nM. In addition, in data set [7], half-maximal inhibition (IC50) required 4.9 nM. Further, the fraction unbound in data set [6] was 0.004.

For the compound `CC(C)Oc1ccc(/N=c2\[nH]c(=O)n(C[C@H](O)CO)c(=O)n2Cc2ccc(Cl)cc2)cc1Cl`, in data set [7], the IC50 is 10.4 nM.

With `C[C@@H](Cn1c(=O)[nH]/c(=N\c2ccc(Oc3nccs3)cc2)n(Cc2ccc(Cl)cc2)c1=O)C(=O)O`, the bioavailability in data set [1] came out at 41.4%. In addition, the “Cp(f)” value in data set [3] was determined as 319 nM. Moreover, the free fraction (fraction unbound) in data set [6] worked out at 0.006.

Take `C[C@@H](Cn1c(=O)[nH]/c(=N\c2ccc(Oc3cncc(F)c3)cc2)n(Cc2ccc(Cl)cc2)c1=O)C(=O)O`: the bioavailability in data set [1] worked out at 74.3%. In addition, the “Cp(f)” value in data set [3] is recorded as 529 nM. Besides, the fraction unbound in data set [6] turned out to be 0.02.

In the case of `C[C@@H](Cn1c(=O)[nH]/c(=N\c2ccc(Oc3cccnn3)cc2)n(Cc2ccc(Cl)cc2)c1=O)C(=O)O`, the bioavailability in data set [1] is 30.2%. Further, the Ratio in data set [2] worked out at 8.3; in data set [4], 0.12. Moreover, the “Cp(f)” value in data set [3] was 64 nM. In data set [7], this compound registered an IC50 of 7.7 nM. Further, in data set [6], the free fraction (fraction unbound) came to 0.014.
